The test concerns the target T1, mAChR M1 (UniProt P11229).
T1 sequence (P11229 1-460): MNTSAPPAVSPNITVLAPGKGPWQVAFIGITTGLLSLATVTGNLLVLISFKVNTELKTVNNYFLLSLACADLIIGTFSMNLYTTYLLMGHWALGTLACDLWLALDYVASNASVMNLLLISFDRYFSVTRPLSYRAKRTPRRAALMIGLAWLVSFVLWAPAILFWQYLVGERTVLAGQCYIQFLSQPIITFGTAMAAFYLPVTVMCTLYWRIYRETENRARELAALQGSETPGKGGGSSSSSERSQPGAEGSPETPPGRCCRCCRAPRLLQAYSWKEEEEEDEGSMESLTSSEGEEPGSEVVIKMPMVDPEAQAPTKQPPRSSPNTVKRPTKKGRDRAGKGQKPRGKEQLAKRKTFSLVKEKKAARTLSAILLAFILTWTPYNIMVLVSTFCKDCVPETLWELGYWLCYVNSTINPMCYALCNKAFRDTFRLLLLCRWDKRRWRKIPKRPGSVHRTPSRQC
The test is described as follows: mAChR M1 cell-based functional assay (calcium mobilization, potentiation of EC20 acetylcholine response). The note with it: for Emax (%): % ACh maximum at 30 μM, mAChR M1-expressing CHO-K1 cells, calcium flux; for pEC50 / EC50: positive allosteric modulation of EC20 ACh response, mAChR M1 CHO-K1 cells; for pEC50: <5 estimated where no plateau; for EC50: >10 μM estimated where no plateau, read-out: EC50. On the procedure:
Chinese hamster ovary (CHO-K1) cells stably expressing rat (r)M1 were purchased from the American Type Culture Collection and cultured according to their indicated protocol. […] To make stable rM2, hM2, rM3, hM4, and rM4 cell lines for use in calcium mobilization assays, these cells also were stably transfected with a chimeric G-protein (Gqi5) (provided by B. R. Conklin, University of California, San Francisco) using Lipofectamine 2000. rM1, hM1, rM3, hM3, rM5, and hM5 cells were grown in Ham's F-12 medium containing 10% heat-inactivated fetal bovine serum (FBS), 20 mM HEPES, and 50 μg/mL G418 sulfate. rM2-Gqi5, hM2-Gqi5, and hM4-Gqi5 cells were grown in the same medium also containing 500 μg/mL Hygromycin B. Stable rM4-Gqi5 cells were grown in DMEM containing 10% heat-inactivated FBS, 20 mM HEPES, 400 μg/mL G418 sulfate, and 500 μg/mL Hygromycin B.
For high throughput measurement of agonist-evoked increases in intracellular calcium, CHO-K1 cells stably expressing muscarinic receptors were plated in growth medium lacking G418 and hygromycin at 15,000 cells/20 μL/well in Greiner 384-well black-walled, tissue culture (TC)-treated, clear-bottom plates (VWR). Cells were incubated overnight at 37° C. and 5% CO2. […] Compound master plates were formatted in an 11 point CRC format (1:3 dilutions) in 100% DMSO with a starting concentration of 10 mM using the BRAVO liquid handler (Agilent). Test compound CRCs were then transferred to daughter plates (240 nL) using the Echo acoustic plate reformatter (Labcyte, Sunnyvale, Calif.) and then diluted into assay buffer (40 μL) to a 2× stock using a Thermo Fisher Combi (Thermo Fisher Scientific, Waltham, Mass.).
Calcium flux was measured using the Functional Drug Screening System (FDSS) 6000 (Hamamatsu Corporation, Tokyo, Japan) as an increase in the fluorescent static ratio. Compounds were applied to cells (20 μL, 2×) using the automated system of the FDSS 6000 at 4 s into the 300 s protocol and the data were collected at 1 Hz. […] Agonist activity was analyzed as a concentration-dependent increase in calcium mobilization upon compound addition. Positive allosteric modulator activity was analyzed as a concentration-dependent increase in the EC20 acetylcholine response. Antagonist activity was analyzed as a concentration-dependent decrease in the EC80 acetylcholine response. Concentration-response curves were generated using a four-parameter logistical equation in XLfit curve fitting software (IDBS, Bridgewater, N.J.) for Excel (Microsoft, Redmond, Wash.) or Prism (GraphPad Software, Inc., San Diego, Calif.).
The above described assay was also operated in a second mode where an appropriate fixed concentration of the present compounds were added to the cells after establishment of a fluorescence baseline for about 3 seconds, and the response in cells was measured. […] Data were reduced as described above and the EC50 values for the agonist in the presence of test compound were determined by nonlinear curve fitting. A decrease in the EC50 value of the agonist with increasing concentrations of the present compounds (a leftward shift of the agonist concentration-response curve) is an indication of the degree of muscarinic positive allosteric modulation at a given concentration of the present compound. An increase in the EC50 value of the agonist with increasing concentrations of the present compounds (a rightward shift of the agonist concentration response curve) is an indication of the degree of muscarinic antagonism at a given concentration of the present compound. The second mode also indicates whether the present compounds also affect the maximum response of the muscarinic receptor to agonists.
The calcium mobilization assay was also used to determine “efficacy”.

A value given as a limit tells only on which side of the number the result lay.

For `O=C1c2cccnc2CN1Cc1ccc(-c2cccc3ncccc23)cc1F` [Example B42], the “Emax (%)” value turned out to be 41%; the pEC50 (commonly −log10 of the EC50, conventionally taken in molar units) was 5.44; the EC50 (commonly the concentration at which the effect is half-maximal) is 3630 nM.
In the same order, the values of `COc1cncc(-c2ccc(CN3Cc4ncccc4C3=O)c(F)c2)c1` [Example B43] are 47%, less than 5.00 and greater than 10000 nM.
As to `O=C1c2cccnc2CN1Cc1c(F)cc(-c2cccc3nccn23)cc1F` [Example B89], the “Emax (%)” value was 48%, the negative-log EC50 (pEC50) is on record as less than 5.00 and the EC50 is greater than 10000 nM.
With `Cn1ncc2cc(-c3ccc(CN4Cc5ccccc5C4=O)c(F)c3)ccc21` [Example B114], the “Emax (%)” value is on record as less than 30%, the negative-log EC50 (pEC50) is reported as less than 5.00 and the EC50 was greater than 10000 nM.
In the same order, the values of `CN(C)c1ccc(-c2ccc(CN3Cc4cccnc4C3=O)c(F)c2)cn1` [Example B78] are 48%, 5.90 and 1260 nM.
With `Cn1cc2cc(-c3ccc(CN4Cc5ncncc5C4=O)c(F)c3)ccc2n1` [Example B56], the “Emax (%)” value worked out at 80%, the pEC50 is listed as 6.40 and the EC50 was 398 nM.
With `Cc1n[nH]c2ccc(-c3cc(F)c(CN4Cc5ncccc5C4=O)c(F)c3)cc12` [Example B102], the “Emax (%)” value came to 68%, the pEC50 is recorded as 6.91 and the half-maximal effective concentration (EC50) was 123 nM.
`Cn1cc2cc(-c3ccc(CN4Cc5ccccc5S4(=O)=O)c(F)c3)ccc2n1` [Example B5]: the “Emax (%)” value turned out to be 34%, the pEC50 is on record as 5.60 and the EC50 is 2500 nM.
Take `Cc1cc(-c2ccc(CN3Cc4ncccc4C3=O)c(F)c2)cnc1F` [Example B34]: the “Emax (%)” value was determined as 37%, the pEC50 was 5.60 and the EC50 is 2510 nM.
The corresponding values for `O=C1c2ccccc2CN1Cc1ccc(-n2ccnc2)cc1F` [Example B22] are 51%, less than 5.00 and greater than 10000 nM.
`O=C1c2ncccc2CN1Cc1ccc(-c2cccnc2)cc1F` [Example B64]: the “Emax (%)” value was determined as 50%, the negative logarithm of the EC50 (pEC50) is recorded as less than 5.00 and the concentration for a half-maximal effect (EC50) is greater than 10000 nM.
Consider `Cn1cc(-c2cnc(CN3Cc4ccccc4C3=O)c(F)c2)cn1` [Example B21], for which the “Emax (%)” value stood at 43%, the pEC50 is recorded as less than 5.00 and the concentration giving a half-maximal response (EC50) was greater than 10000 nM.
As to `O=S1(=O)c2ccccc2CN1Cc1ccc(-n2cccn2)cc1` [Example B115], the “Emax (%)” value is listed as less than 30%, the pEC50 is listed as less than 5.00 and the EC50 is greater than 10000 nM.
Regarding `O=C1c2cccnc2CN1Cc1ccc(-c2ccc3cn[nH]c3c2)cc1F` [Example B40], the “Emax (%)” value is 70%, the pEC50 was 6.13 and the EC50 was 741 nM.
For `Cn1cc2cc(-c3cc(F)c(CN4Cc5ncccc5C4=O)cc3F)ccc2n1` [Example B105], the “Emax (%)” value is 69%, the pEC50 is 6.39 and the half-maximal effective concentration (EC50) is 407 nM.
In the same order, the values of `Cn1cc2cc(-c3ccc(CN4Cc5cccnc5C4=O)c(F)c3)ccc2n1` [Example B71] are 72%, 6.15 and 708 nM.
In the same order, the values of `Cn1cc2cc(-c3cccc(CN4Cc5ncccc5C4=O)c3F)ccc2n1` [Example B106] are 41%, 5.42 and 3800 nM.
`CN1CC=C(c2ccc(CN3Cc4ncccc4C3=O)c(F)c2)CC1` [Example B53]: the “Emax (%)” value is given as 80%, the pEC50 was 5.51 and the 50% effective concentration (EC50) is 3090 nM.
In the same order, the values of `Cn1cc2c(-c3cccc(CN4Cc5ncccc5C4=O)c3F)cccc2n1` [Example B109] are 36%, 5.14 and 7240 nM.
As to `Cn1cc2c(-c3cc(F)c(CN4Cc5ncccc5C4=O)cc3F)cccc2n1` [Example B87], the “Emax (%)” value is listed as 68%, the pEC50 is 5.22 and the EC50 was 6030 nM.
Turning to `Cc1cc(-c2cccnc2)ccc1CN1Cc2cccnc2C1=O` [Example B85], the “Emax (%)” value is listed as 41%, the pEC50 was less than 5.00 and the EC50 is greater than 10000 nM.
For `Cn1cc2c(-c3ccc(CN4Cc5cccnc5C4=O)c(F)c3)cccc2n1` [Example B62], the “Emax (%)” value worked out at 72%, the pEC50 was 6.07 and the EC50 was 851 nM.
`Cn1ncc2ccc(-c3ccc(CN4Cc5cccnc5C4=O)c(F)c3)cc21` [Example B60]: the “Emax (%)” value is listed as 76%, the pEC50 is recorded as 5.80 and the EC50 is 1590 nM.
Turning to `Cc1cc(-c2ccc(CN3Cc4cccnc4C3=O)c(Cl)c2)cnc1Cl` [Example B75], the “Emax (%)” value is given as 42%, the pEC50 is reported as 5.70 and the EC50 is 2000 nM.
As for `Cc1cc(-c2ccc(CN3Cc4cccnc4C3=O)c(F)c2)cnc1Cl` [Example B63], the “Emax (%)” value was 48%, the pEC50 is 5.73 and the EC50 was 1860 nM.
Regarding `O=C1c2ccccc2CN1Cc1ccc(-n2cncn2)cc1F` [Example B126], the “Emax (%)” value was less than 30%, the pEC50 was less than 5.00 and the EC50 was greater than 10000 nM.
In the same order, the values of `O=C1c2cccnc2CN1Cc1ccc(-c2ccc3[nH]ncc3c2)cc1F` [Example B36] are 58%, 6.28 and 525 nM.
Take `Cn1cc(-c2ccc(CN3Cc4ccccc4C3=O)cn2)cn1` [Example B17]: the “Emax (%)” value came out at 40%, the pEC50 is given as less than 5.00 and the EC50 is greater than 10000 nM.
`O=C1Cc2cc(-c3ccc(CN4Cc5ncccc5C4=O)c(F)c3)ccc2N1` [Example B86]: the “Emax (%)” value was determined as 58%, the pEC50 was 6.25 and the EC50 was 562 nM.
For the molecule `Cc1nc(-c2ccc(CN3Cc4ccccc4S3(=O)=O)cc2)no1` [Example B119], the “Emax (%)” value is given as less than 30%, the pEC50 is listed as less than 5.00 and the EC50 was greater than 10000 nM.
Regarding `O=C1c2cccnc2CN1Cc1ccc(-c2ccc3ccncc3c2)cc1F` [Example B49], the “Emax (%)” value is 68%, the negative logarithm of the EC50 (pEC50) was 5.81 and the EC50 was 1550 nM.
In the case of `O=C1c2ncccc2CN1Cc1ccc(-c2cccnc2)cc1Cl` [Example B67], the “Emax (%)” value was found to be 56%, the pEC50 is recorded as 5.28 and the EC50 is 5250 nM.
In the case of `O=C1c2ncccc2CN1Cc1ccc(-c2cnc3ccccc3c2)cc1F` [Example B66], the “Emax (%)” value came to 52%, the pEC50 was 5.84 and the EC50 is 1440 nM.

(Values after patent US10654847B2, “Substituted 2-(4-heterocyclylbenzyl)isoindolin-1-one analogs as positive allosteric modulators of the muscarinic acetylcholine receptor M1” (Vanderbilt University, priority 2011, dated 2020).)
